According to ChEMBL document CHEMBL1201862, “PubChem BioAssay data set” (2004):
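Values below derive from 48-hour exposures of cells grown in 96-well plates, with endpoints linearly interpolated between the two concentrations bracketing the appropriate inhibition level. GI50 marks 50% less growth.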 Calls of active or inactive are those of the source. Cut-off read from the data, not from the text of the source: active = GI50 up to about 1.1 µM and inactive = higher.

How the values were obtained:
Test in all cases: inhibition of tumour cell growth, NCI panel, 48 h
A549 = tested on: A549
RXF 393 = tested on: RXF 393
T47D = tested on: T47D
M14 = tested on: M14
MCF7 = tested on: MCF7
A498 = tested on: A498
PC-3 = tested on: PC-3
UACC-62 = tested on: UACC-62
BT-549 = tested on: BT-549
COLO 205 = tested on: COLO 205
HL-60 = tested on: HL-60
SR = tested on: SR
HOP-92 = tested on: HOP-92
RPMI-8226 = tested on: RPMI-8226
K562 = tested on: K562
NCI-H522 = tested on: NCI-H522
UO-31 = tested on: UO-31
CCRF-CEM = tested on: CCRF-CEM
IGROV-1 = tested on: IGROV-1
MDA-MB-231 = tested on: MDA-MB-231
DU-145 = tested on: DU-145
SF-295 = tested on: SF-295
SNB-75 = tested on: SNB-75
NCI-H460 = tested on: NCI-H460
NCI-H23 = tested on: NCI-H23
SK-MEL-28 = tested on: SK-MEL-28
SNB-19 = tested on: SNB-19
OVCAR-3 = tested on: OVCAR-3
HCT-116 = tested on: HCT-116
U-251 = tested on: U-251
ACHN = tested on: ACHN
Malme-3M = tested on: Malme-3M
SK-OV-3 = tested on: SK-OV-3
Hs-578T = tested on: Hs-578T
SW-620 = tested on: SW-620
HCT-15 = tested on: HCT-15
MDA-MB-435 = tested on: MDA-MB-435
SK-MEL-2 = tested on: SK-MEL-2
OVCAR-4 = tested on: OVCAR-4
MOLT-4 = tested on: MOLT-4
KM12 = tested on: KM12
OVCAR-8 = tested on: OVCAR-8
CAKI-1 = tested on: CAKI-1
EKVX = tested on: EKVX
OVCAR-5 = tested on: OVCAR-5
SN12C = tested on: SN12C
HOP-62 = tested on: HOP-62
NCI/ADR-RES = tested on: NCI/ADR-RES
UACC-257 = tested on: UACC-257
786-0 = tested on: 786-0
HT-29 = tested on: HT-29
TK-10 = tested on: TK-10
SK-MEL-5 = tested on: SK-MEL-5
NCI-H226 = tested on: NCI-H226
MDA-N = tested on: MDA-N
SF-268 = tested on: SF-268
SF-539 = tested on: SF-539
LOX IMVI = tested on: LOX IMVI

CC(C)c1cc(C(F)(F)F)nc(NNc2nc(C(C)C)cc(C(F)(F)F)n2)n1
GI50 (A549): 94 µM (inactive) | GI50 (RXF 393): 32.4 µM (inactive) | GI50 (T47D): > 100 µM (inactive) | GI50 (M14): 67.9 µM (inactive) | GI50 (MCF7): > 100 µM (inactive) | GI50 (A498): > 100 µM (inactive) | GI50 (PC-3): > 100 µM (inactive) | GI50 (UACC-62): 80 µM (inactive) | GI50 (BT-549): > 100 µM (inactive) | GI50 (COLO 205): > 100 µM (inactive) | GI50 (HL-60): > 100 µM (inactive) | GI50 (SR): > 100 µM (inactive) | GI50 (HOP-92): > 100 µM (inactive) | GI50 (RPMI-8226): > 100 µM (inactive) | GI50 (K562): > 100 µM (inactive) | GI50 (NCI-H522): > 100 µM (inactive) | GI50 (UO-31): > 100 µM (inactive) | GI50 (CCRF-CEM): > 100 µM (inactive) | GI50 (IGROV-1): > 100 µM (inactive) | GI50 (MDA-MB-231): 65.3 µM (inactive) | GI50 (DU-145): > 100 µM (inactive) | GI50 (SF-295): 37.1 µM (inactive) | GI50 (SNB-75): 24.2 µM (inactive) | GI50 (NCI-H460): 62.8 µM (inactive) | GI50 (NCI-H23): 53.8 µM (inactive) | GI50 (SK-MEL-28): > 100 µM (inactive) | GI50 (SNB-19): 41.7 µM (inactive) | GI50 (OVCAR-3): 17.1 µM (inactive) | GI50 (HCT-116): 93.8 µM (inactive) | GI50 (U-251): 45.8 µM (inactive) | GI50 (ACHN): 56.8 µM (inactive) | GI50 (Malme-3M): 49 µM (inactive) | GI50 (SK-OV-3): 33.7 µM (inactive) | GI50 (Hs-578T): 79.4 µM (inactive) | GI50 (SW-620): > 100 µM (inactive) | GI50 (HCT-15): > 100 µM | GI50 (MDA-MB-435): > 100 µM (inactive) | GI50 (SK-MEL-2): > 100 µM (inactive) | GI50 (OVCAR-4): 72.6 µM (inactive) | GI50 (MOLT-4): > 100 µM (inactive) | GI50 (KM12): > 100 µM (inactive) | GI50 (OVCAR-8): > 100 µM (inactive) | GI50 (CAKI-1): 64.7 µM (inactive) | GI50 (EKVX): 67.5 µM (inactive) | GI50 (OVCAR-5): > 100 µM (inactive) | GI50 (SN12C): > 100 µM (inactive) | GI50 (HOP-62): 13.2 µM (inactive) | GI50 (NCI/ADR-RES): > 100 µM (inactive) | GI50 (UACC-257): 15.9 µM (inactive) | GI50 (786-0): 28.4 µM (inactive) | GI50 (HT-29): > 100 µM (inactive) | GI50 (TK-10): 19.1 µM (inactive) | GI50 (SK-MEL-5): > 100 µM (inactive) | GI50 (NCI-H226): > 100 µM (inactive) | GI50 (MDA-N): > 100 µM (inactive) | GI50 (SF-268): > 100 µM (inactive) | GI50 (SF-539): 90.8 µM (inactive)

C#CCn1c(=O)c(C)cn(/C(=C\C(=O)OCC)C(=O)OCC)c1=O
GI50 (A549): 20 µM (inactive) | GI50 (RXF 393): 1.95 µM (inactive) | GI50 (T47D): 2.65 µM (inactive) | GI50 (M14): 4.19 µM (inactive) | GI50 (MCF7): 2.72 µM (inactive) | GI50 (A498): 17.2 µM (inactive) | GI50 (PC-3): 13.5 µM (inactive) | GI50 (UACC-62): 10.1 µM (inactive) | GI50 (BT-549): 9.71 µM (inactive) | GI50 (COLO 205): 1.17 µM (inactive) | GI50 (HL-60): 1.35 µM (inactive) | GI50 (SR): 2.96 µM (inactive) | GI50 (HOP-92): 2.12 µM (inactive) | GI50 (RPMI-8226): 2.8 µM (inactive) | GI50 (K562): 2.63 µM (inactive) | GI50 (UO-31): 12.7 µM (inactive) | GI50 (CCRF-CEM): 0.435 µM (active) | GI50 (IGROV-1): 8.63 µM (inactive) | GI50 (MDA-MB-231): 10.1 µM (inactive) | GI50 (DU-145): 16.1 µM (inactive) | GI50 (SF-295): 19.5 µM (inactive) | GI50 (SNB-75): 17.6 µM (inactive) | GI50 (NCI-H460): 2.2 µM (inactive) | GI50 (NCI-H23): 12.6 µM (inactive) | GI50 (SK-MEL-28): 2.03 µM (inactive) | GI50 (SNB-19): 19.7 µM (inactive) | GI50 (OVCAR-3): 6.17 µM (inactive) | GI50 (HCT-116): 3.34 µM (inactive) | GI50 (U-251): 8.11 µM (inactive) | GI50 (ACHN): 1.69 µM (inactive) | GI50 (LOX IMVI): 11.1 µM (inactive) | GI50 (Malme-3M): 2.1 µM (inactive) | GI50 (SK-OV-3): 28.6 µM (inactive) | GI50 (Hs-578T): 24.8 µM (inactive) | GI50 (SW-620): 1.67 µM (inactive) | GI50 (HCT-15): 1.58 µM | GI50 (MDA-MB-435): 5.16 µM (inactive) | GI50 (SK-MEL-2): 16.2 µM (inactive) | GI50 (OVCAR-4): 2.69 µM (inactive) | GI50 (MOLT-4): 2.65 µM (inactive) | GI50 (KM12): 30.1 µM (inactive) | GI50 (OVCAR-8): 3.05 µM (inactive) | GI50 (CAKI-1): 1.36 µM (inactive) | GI50 (EKVX): 6.43 µM (inactive) | GI50 (OVCAR-5): 7.06 µM (inactive) | GI50 (SN12C): 6.3 µM (inactive) | GI50 (HOP-62): 20.5 µM (inactive) | GI50 (NCI/ADR-RES): 3.86 µM (inactive) | GI50 (UACC-257): 14.7 µM (inactive) | GI50 (786-0): 2.82 µM (inactive) | GI50 (HT-29): 1.72 µM (inactive) | GI50 (TK-10): 1.77 µM (inactive) | GI50 (SK-MEL-5): 22.3 µM (inactive) | GI50 (NCI-H226): 17.1 µM (inactive) | GI50 (MDA-N): 7.5 µM (inactive) | GI50 (SF-268): 16.1 µM (inactive) | GI50 (SF-539): 1.28 µM (inactive)

COC(=O)c1cc(C)n(CN(Cn2nc(C(=O)OC)cc2C)c2ccccc2)n1
GI50 (A549): 73.3 µM (inactive) | GI50 (RXF 393): 20.1 µM (inactive) | GI50 (T47D): 22 µM (inactive) | GI50 (M14): 32.7 µM (inactive) | GI50 (MCF7): 28.1 µM (inactive) | GI50 (A498): > 100 µM (inactive) | GI50 (PC-3): 28.3 µM (inactive) | GI50 (UACC-62): 15.1 µM (inactive) | GI50 (BT-549): 31 µM (inactive) | GI50 (COLO 205): 16 µM (inactive) | GI50 (HL-60): 4.7 µM (inactive) | GI50 (SR): 10 µM (inactive) | GI50 (HOP-92): 66.1 µM (inactive) | GI50 (RPMI-8226): 17.3 µM (inactive) | GI50 (K562): 20 µM (inactive) | GI50 (NCI-H522): 39 µM (inactive) | GI50 (UO-31): 18.3 µM (inactive) | GI50 (CCRF-CEM): 16 µM (inactive) | GI50 (IGROV-1): 43 µM (inactive) | GI50 (MDA-MB-231): > 100 µM (inactive) | GI50 (DU-145): 25.9 µM (inactive) | GI50 (SF-295): 32.8 µM (inactive) | GI50 (NCI-H460): 57.9 µM (inactive) | GI50 (NCI-H23): 25.2 µM (inactive) | GI50 (SK-MEL-28): 32.8 µM (inactive) | GI50 (SNB-19): > 100 µM (inactive) | GI50 (OVCAR-3): > 100 µM (inactive) | GI50 (HCT-116): 19.6 µM (inactive) | GI50 (U-251): 39 µM (inactive) | GI50 (ACHN): 18.7 µM (inactive) | GI50 (LOX IMVI): 7 µM (inactive) | GI50 (Malme-3M): 43.2 µM (inactive) | GI50 (SK-OV-3): > 100 µM (inactive) | GI50 (Hs-578T): > 100 µM (inactive) | GI50 (SW-620): 29.6 µM (inactive) | GI50 (HCT-15): 18 µM | GI50 (MDA-MB-435): 42.9 µM (inactive) | GI50 (SK-MEL-2): 36.1 µM (inactive) | GI50 (OVCAR-4): 18.4 µM (inactive) | GI50 (MOLT-4): 13.4 µM (inactive) | GI50 (KM12): 29.4 µM (inactive) | GI50 (OVCAR-8): 19.4 µM (inactive) | GI50 (CAKI-1): 37.8 µM (inactive) | GI50 (EKVX): > 100 µM (inactive) | GI50 (OVCAR-5): 48.4 µM (inactive) | GI50 (SN12C): 55.1 µM (inactive) | GI50 (HOP-62): 97.3 µM (inactive) | GI50 (NCI/ADR-RES): 21.2 µM (inactive) | GI50 (UACC-257): 33.3 µM (inactive) | GI50 (786-0): 24.5 µM (inactive) | GI50 (HT-29): 16.7 µM (inactive) | GI50 (TK-10): > 100 µM (inactive) | GI50 (SK-MEL-5): 36 µM (inactive) | GI50 (MDA-N): 38.5 µM (inactive) | GI50 (SF-268): 34 µM (inactive) | GI50 (SF-539): 17.7 µM (inactive)
